This test deals with Cathepsin K (Homo sapiens) (UniProt P43235). Put plainly: Inhibition of human cathepsin K using Z-Leu-Arg-AMC fluorogenic substrate incubated for 60 mins.
A word on the Ki: it is the equilibrium dissociation constant of an inhibitor or competing ligand from its target. `CN(C(=O)OC(C)(C)C)N(C#N)CC(=O)N1CCOCC1` came in with a Ki of 31000 pM.

In the case of `CC(C)(C)OC(=O)NN(C#N)CC(=O)N1CCOCC1`, the affinity, expressed as Ki, was 11 pM.

On to `CN(Cc1ccccc1)C(=O)CN(C#N)NC(=O)OC(C)(C)C`, for which affinity was put at a Ki of 4.2 pM. Compared with the last compound, the Ki is about 2.6-fold lower.

Consider `CC(C)(C)OC(=O)NN(C#N)CC(=O)N(Cc1ccccc1)Cc1ccccc1`, for which the Ki was determined as 1.43 pM.
